Data as given in paper PMC9088073, “Discovery of 2-Phenylquinolines with Broad-Spectrum Anti-coronavirus Activity” (ACS Medicinal Chemistry Letters, 2022).
Read-outs that look alike come from different tables or passages of the source. Marks after values point to notes of the source that are not given here.

Assays:
SARS-CoV-2 = assay: microbe, parasite or virus in culture; format: cell-based
in vitro [1] = conditions: chlorocebus sabaeus
HCoV-229E = assay: microbe, parasite or virus in culture; format: cell-based; conditions: Human coronavirus 229E, HEL 299, read-out: HCoV-229E EC50
HCoV-OC43 = assay: microbe, parasite or virus in culture; format: cell-based; conditions: Betacoronavirus 1, OC43, HEL 299, read-out: HCoV-OC43 EC50
in vitro [2] = conditions: human
SARS-CoV-2 nsp12 RdRp = SARS-CoV-2 nsp12 RdRp (Severe acute respiratory syndrome coronavirus 2, UniProt P0DTD1); assay: SARS-CoV-2 nsp12 RdRp activity, fluorescent-based assay; format: biochemical; conditions: in the presence of the highest concentration of tested compound (30 μM); read-out: RdRp percentage of control
[3] = target: SARS-CoV-2 nsp13 helicase (Severe acute respiratory syndrome coronavirus 2, UniProt P0DTD1); assay: biochemical; format: biochemical; conditions: for IC50: SARS-CoV-2 nsp13 helicase-associated activity, read-out: helicase unwinding IC50
SARS-CoV-2 nsp13 ATPase = SARS-CoV-2 nsp13 ATPase (Severe acute respiratory syndrome coronavirus 2, UniProt P0DTD1); format: biochemical; conditions: for IC50: read-out: helicase ATPase IC50
VeroE6 cells = conditions: uninfected VeroE6 cells, MTS assay; mean ± SD of duplicate experiments
[4] = test system: autophagy (LC3-II puncta) in VeroE6 cells; assay: Autophagy inhibition assay, LC3-II immunofluorescence in VeroE6 cells; format: cell-based; conditions: 10 μM, 4 h, compared to CQ
[5] = Severe acute respiratory syndrome coronavirus 2, […], mean ± SD of duplicate experiments, read-out: Anti-SARS-CoV-2 activity EC50
[6] = […], mean ± SD of duplicate experiments
[7] = SARS-CoV-2 nsp13 ATPase-associated activity
[8] = in the presence of the highest concentration of tested compound (30 μM; 3 μM for SSYA10-001)

CCCOc1ccc(-c2cc(OCCN3CCc4cc(OC)ccc4C3)c3c(OC)cc(OC)cc3n2)cc1 [Compound 6m, 5,7-Dimethoxy-4-[2-(6-methoxy-3,4-dihydroisoquinolin-2(1H)-yl)ethoxy]-2-(4-propoxyphenyl)quinoline]
EC50 (SARS-CoV-2; [5]): > 100 µM | Anti-SARS-CoV-2 activity EC50 (SARS-CoV-2; [6]): devoid of any activity | CC50 (in vitro [1]): > 100 µM

CCCOc1ccc(-c2cc(OCCN3CCc4ccccc4C3)c3c(OC)cc(OC)cc3n2)cc1 [Compound 6n, 4-[2-(3,4-Dihydroisoquinolin-2(1H)-yl)ethoxy]-5,7-dimethoxy-2-(4-propoxyphenyl)quinoline]
EC50 (SARS-CoV-2; [5]): > 100 µM | Anti-SARS-CoV-2 activity EC50 (SARS-CoV-2; [6]): devoid of any activity | CC50 (in vitro [1]): > 100 µM

CCCOc1ccc(-c2cc(OCCN3Cc4ccccc4C3)c3c(OC)cc(OC)cc3n2)cc1 [Compound 6o, 4-[2-(1,3-Dihydro-2H-isoindol-2-yl)ethoxy]-5,7-dimethoxy-2-(4-propoxyphenyl)quinoline]
EC50 (SARS-CoV-2; [5]): > 100 µM | Anti-SARS-CoV-2 activity EC50 (SARS-CoV-2; [6]): devoid of any activity | CC50 (in vitro [1]): > 100 µM

CCCOc1ccc(-c2cc(OCCN(CC)CC)c3c(OC)ccc(OC)c3n2)cc1 [Compound 7a]
EC50 (SARS-CoV-2; [5]): 4.6 ± 0.2 µM | EC50 (HCoV-229E): 700 ± 300 nM | EC50 (HCoV-OC43): 2000 ± 200 nM | CC50 (in vitro [1]): 24.6 ± 0.1 µM | CC50 (in vitro [2]): 9.9 ± 0.8 µM

CCCOc1ccc(-c2cc(OCCN3CCCC3)c3c(OC)ccc(OC)c3n2)cc1 [Compound 7j]
EC50 (SARS-CoV-2; [5]): 11.3 ± 2.1 µM | EC50 (HCoV-229E): 600 ± 300 nM | EC50 (HCoV-OC43): 1800 ± 700 nM | CC50 (in vitro [1]): 89.8 ± 2.8 µM | CC50 (in vitro [2]): 8.7 ± 0.8 µM

CCCOc1ccc(-c2cc(OCCN3CCCCC3)c3c(OC)ccc(OC)c3n2)cc1 [Compound 7k]
EC50 (SARS-CoV-2; [5]): 2.7 ± 1.9 µM | EC50 (HCoV-229E): 9400 ± 3600 nM | EC50 (HCoV-OC43): 7700 ± 3300 nM | remaining activity at 30 µM (SARS-CoV-2 nsp12 RdRp): 100% | IC50 [3]: 1410 ± 640 nM | IC50 (SARS-CoV-2 nsp13 ATPase; [7]): > 30 µM | helicase ATPase percentage of control (SARS-CoV-2 nsp13 ATPase; [8]): 100% | CC50 (in vitro [1]): 23.8 ± 5.7 µM | CC50 (in vitro [2]): 95.3 ± 3.3 µM

CCCOc1ccc(-c2cc(OCCN(CC)CC)c3cc(OC)c(OC)cc3n2)cc1 [Compound 8a]
EC50 (SARS-CoV-2; [5]): 5.1 ± 1.4 µM | EC50 (HCoV-229E): 1800 ± 400 nM | EC50 (HCoV-OC43): 1900 ± 400 nM | CC50 (in vitro [1]): 70.3 ± 23.7 µM | CC50 (in vitro [2]): 9.2 ± 0.1 µM

CCCOc1ccc(-c2cc(OCCN3CCCC3)c3cc(OC)c(OC)cc3n2)cc1 [Compound 8j]
EC50 (SARS-CoV-2; [5]): 9.6 ± 2.2 µM | CC50 (in vitro [1]): 12.9 ± 4.8 µM

CCCOc1ccc(-c2cc(OCCN3CCCCC3)c3cc(OC)c(OC)cc3n2)cc1 [Compound 8k]
EC50 (SARS-CoV-2; [5]): 2.6 ± 1.4 µM | EC50 (HCoV-229E): 200 ± 200 nM | EC50 (HCoV-OC43): 1600 ± 200 nM | CC50 (in vitro [1]): 11.1 ± 1.3 µM | CC50 (in vitro [2]): 12.3 ± 1.1 µM

CCCOc1ccc(-c2cc(OCCN(CC)CC)c3cc(OC)cc(OC)c3n2)cc1 [Compound 9a]
EC50 (SARS-CoV-2; [5]): 13 ± 10 µM | EC50 (HCoV-229E): 3500 ± 2700 nM | EC50 (HCoV-OC43): 2200 ± 500 nM | CC50 (in vitro [1]): > 100 µM | CC50 (in vitro [2]): 43.5 ± 5.6 µM

CCCOc1ccc(-c2cc(OCCN3CCN(Cc4ccccc4)CC3)c3cc(OC)cc(OC)c3n2)cc1 [Compound 9f]
EC50 (SARS-CoV-2; [5]): > 100 µM | VeroE6 cells CC50 (VeroE6 cells): lacked cytotoxicity | CC50 (in vitro [1]): > 100 µM

CCCOc1ccc(-c2cc(OCCN3CCc4cc(OC)c(OC)cc4C3)c3cc(OC)cc(OC)c3n2)cc1 [Compound 9g]
EC50 (SARS-CoV-2; [5]): > 100 µM | Anti-SARS-CoV-2 activity EC50 (SARS-CoV-2; [6]): devoid of antiviral activity | effect on autophagy (LC3-II accumulation), in words [4]: minimal effect on the autophagy | CC50 (in vitro [1]): > 100 µM

CCCOc1ccc(-c2cc(OCCN3CCCC3)c3cc(OC)cc(OC)c3n2)cc1 [Compound 9j]
EC50 (SARS-CoV-2; [5]): 5.9 ± 2.4 µM | EC50 (HCoV-229E): 40000 ± 20800 nM | EC50 (HCoV-OC43): 22700 ± 2800 nM | remaining activity at 30 µM (SARS-CoV-2 nsp12 RdRp): 100% | IC50 [3]: > 30000 nM | remaining activity at 30 µM ([3]; in the presence of the highest concentration of tested compound (30 μM), read-out: helicase unwinding percentage of control): 57% | IC50 (SARS-CoV-2 nsp13 ATPase; [7]): > 30 µM | helicase ATPase percentage of control (SARS-CoV-2 nsp13 ATPase; [8]): 100% | CC50 (in vitro [1]): > 100 µM | CC50 (in vitro [2]): > 100 µM

CCCOc1ccc(-c2cc(OCCN(CC)CC)c3c(OC)c(OC)c(OC)cc3n2)cc1 [Compound 10a]
EC50 (SARS-CoV-2; [5]): 8.3 ± 1.8 µM | CC50 (in vitro [1]): 23.8 ± 8.3 µM

CCCOc1ccc(-c2cc(C(=O)NCCN(CC)CC)c3ccccc3n2)cc1 [Compound 11l]
EC50 (SARS-CoV-2; [5]): > 100 µM | Anti-SARS-CoV-2 activity EC50 (SARS-CoV-2; [6]): loss of activity

CCN(CC)CCOc1cc(-c2ccccc2)nc2ccccc12 [Compound 12a]
EC50 (SARS-CoV-2; [5]): > 100 µM | Anti-SARS-CoV-2 activity EC50 (SARS-CoV-2; [6]): loss of activity | CC50 (in vitro [1]): 64.7 ± 29.8 µM

CCN(CC)CCOc1cc(-c2ccc(Cl)s2)nc2ccccc12 [Compound 13a]
EC50 (SARS-CoV-2; [5]): > 100 µM | Anti-SARS-CoV-2 activity EC50 (SARS-CoV-2; [6]): loss of activity

c1ccc(-c2cc(OCCN3CCCCC3)c3ccccc3n2)nc1 [Compound 14k]
EC50 (SARS-CoV-2; [5]): > 100 µM | Anti-SARS-CoV-2 activity EC50 (SARS-CoV-2; [6]): loss of activity

N#C[C@@]1(c2ccc3c(N)ncnn23)O[C@H](CO)[C@@H](O)[C@H]1O [GS-441524, reference compound]
EC50 (SARS-CoV-2; [5]): 0.7 ± 0.07 µM | EC50 (HCoV-229E): 900 ± 100 nM | CC50 (in vitro [2]): > 100 µM

NC(=O)c1ccc(Oc2ccc(C(N)=O)cc2)cc1 [OUL-355]
EC50 (SARS-CoV-2; read-out: Anti-SARS-CoV-2 activity EC50, primary screening): > 100 µM

C=CCn1c(S)nnc1CSc1ccccc1[N+](=O)[O-] [SSYA10-001, reference compound]
helicase ATPase percentage of control (SARS-CoV-2 nsp13 ATPase): >3 (90%) ^d | IC50 (SARS-CoV-2 nsp13 ATPase): > 3 µM

COc1cc(O)c2c(=O)cc(-c3ccc(OCCCN4CCN(C)CC4)c(N)c3)n(C)c2c1 [WRNA10]
EC50 (SARS-CoV-2; Severe acute respiratory syndrome coronavirus 2, read-out: Anti-SARS-CoV-2 activity EC50, primary screening): 10 µM | CC50 (in vitro [1]): 40 µM
